The test system of test [1] is croton oil-induced inflammation of the rat ear. Briefly: topical anti-inflammatory model, croton oil irritant solution on rat ears (based on Fregnan & Torsello 1975). In kind it is in vivo, Rats, Charles River Wistar strain, male. Particulars: for reduction of the increase in ear weight / activity (in words): topical. How it is done:
1. Compounds (5) and (6) were tested for anti-inflammatory activity in a topical model based on that described by Fregnan G. B. & Torsello, A. L. (1975) Current Therapeutic Research 17, No. 4, 375-381.
In the test the activity of the novel compounds was compared with that of naproxen. In outline the method is as follows:
Rats, Charles River Wistar strain, .male. 10/group. Weight range 220-260 g.
Irritant solution applied consists of 74% diethyl ether (20% pyridine, 5% dist. H2 O, 1% croton oil. 0.05 ml is placed on each ear, compound being included in the irritant solution on one ear. 6 hours later the ears are removed by cutting along the hairline and weighed.
-ve controls--no irritant solution.
+ve controls--irritant solution on both ears.

In test [2] the test system is croton oil-induced inflammation of the ear. As to the kind of experiment: croton oil model of topical anti-inflammatory activity, dose response (1% croton oil in tetrahydrofuran). Format: in vivo, rat. Particulars: for Treated Ear Wt mg ± s.e.: normal control 98.5, inflamed control 126.1; for Untreated Ear Wt mg ± s.e.: normal control 99.1, inflamed control 118.7; for ED50: 1% croton oil in tetrahydrofuran. An excerpt: 3. A direct comparison of the activity of Compound (12) and Compound (5) in the croton oil model of topical anti-inflammatory activity

The test system of test [3] is cantharidin-induced inflammation of the rat ear. Briefly: anti-inflammatory test induced by the application of cantharidin to the rat ear (Boris & Hurley 1977). Format: in vivo, male Wistar rats. Conditions: for Untreated Ear Wt mg ± s.e.: normal control 92.9, inflamed control 146.3; for Treated Ear Wt mg ± s.e.: normal control 95.0, inflamed control 162.0. How it is done:
2. Activity of Compound (5) in an anti-inflammatory test induced by the application of cantharidin to the rat ear
This model developed by Boris A and Hurley M., (1977) J. Invest. Dermatology, 68, 161-164 is claimed to be selective for the anti-inflammatory activity of corticosteroids. Groups of ten male Wistar rats received 0.05 ml per ear of a solution of 400 μg of cantharidin plus or minus compound in tetrahydrofuran. […]

[4] abbreviates: 2 mg/rat, first experiment (compounds 5, 6, naproxen), -ve control 128.4, +ve control 163.2, 6 hours.
Setting [5] is: 2 mg/rat, first experiment, -ve control 122.5, +ve control 151.8, 6 hours.
Where [6] appears, read: 2 mg/rat, first experiment, 6 hours.

“Also recorded” adds a separate entry of the source.

Five compounds from US4303674A, “Substituted decalins, their preparation and use” (Beecham Group Limited, priority 1979, dated 1981) can be followed below.

Turning to `CC(=O)CCC1CCC2=CC(=O)C=CC2(C)C1` (stereo not shown) [Compound (6)], the “Mean weight of Treated Ear” value in test [1] (setting [4]) is 134.3 ± 2.3 m.g. Also, the “Mean weight of Untreated Ear” value in test [1] (setting [5]) is given as 159.1 ± 5.1 m.g. In test [1] (setting [6]), the “Treated Ear, % in parentheses (reduction of ear weight increase vs +ve control)” value was 83% and the “Untreated Ear, % in parentheses (reduction of ear weight increase vs +ve control)” value is on record as -25%. Further, in test [1], the “reduction of the increase in ear weight / activity (in words)” value was “appeared equi-active with Compound (5)”.

As to `CC(=O)CCC1CCC2=CC(=O)CCC2(C)C1` (stereo not shown) [Compound (5), 4a-Methyl-6-(3'-oxobutyl)-2,3,4,4a,5,6,7,8-octahydro-2-naphthalenone], in test [2] (1 mg/ear), the “Treated Ear Wt mg ± s.e.” value is recorded as 124.5 ± 4.6 mg, the “Untreated Ear Wt mg ± s.e.” value was 119.9 ± 4.7 mg, the “Treated Ear % Inhibition” value is given as 6% and the “Untreated Ear % Inhibition” value was -6%. In test [2] (2 mg/ear), the “Treated Ear Wt mg ± s.e.” value turned out to be 116.4 ± 3.8 mg, the “Untreated Ear Wt mg ± s.e.” value was found to be 119.9 ± 5.1 mg, the “Treated Ear % Inhibition” value stood at 35% and the “Untreated Ear % Inhibition” value is reported as -6%. Also, in test [2] (4 mg/ear), the “Treated Ear Wt mg ± s.e.” value was determined as 108.2 ± 2.8 mg, the “Untreated Ear Wt mg ± s.e.” value came to 115.5 ± 5.6 mg, the “Treated Ear % Inhibition” value turned out to be 65% and the “Untreated Ear % Inhibition” value was determined as 16%. The compound further yielded an ED50 in test [2] of 2.8 mg/ear. Further, in test [3] (4 mg/ear), the “Untreated Ear Wt mg ± s.e.” value is recorded as 134.3 mg, the “Treated Ear Wt mg ± s.e.” value came out at 140.5 mg, the “Treated Ear % Inhibition” value stood at 32% and the “Untreated Ear % Inhibition” value is recorded as 22%. For the same compound, the “Mean weight of Treated Ear” value in test [1] (setting [4]) was 135.4 ± 3.3 m.g. In test [1] (setting [5]), the “Mean weight of Untreated Ear” value is 169.0 ± 7.4 m.g. Besides, in test [1] (setting [6]), the “Treated Ear, % in parentheses (reduction of ear weight increase vs +ve control)” value is listed as 80% and the “Untreated Ear, % in parentheses (reduction of ear weight increase vs +ve control)” value is given as -59%. For the same compound, the “reduction of the increase in ear weight / activity (in words)” value in test [1] was “significantly reduced the increase in ear weight brought about by the irritant solution; also recorded: The activity was at the same dose as that of naproxen”.

For `C[C@]12CCC(=O)C=C1CC[C@@H]1[C@@H]2[C@@H](O)C[C@@]2(C)[C@H]1CC[C@]2(O)C(=O)CO` [Hydrocortisone], in test [3] (2 mg/ear), the “Untreated Ear Wt mg ± s.e.” value was determined as 142.0 mg, the “Treated Ear Wt mg ± s.e.” value came out at 133.1 mg, the “Treated Ear % Inhibition” value amounted to 43% and the “Untreated Ear % Inhibition” value is 8%.

With `COc1ccc2cc([C@H](C)C(=O)O)ccc2c1` [Naproxen, reference compound], in test [3] (4 mg/ear), the “Untreated Ear Wt mg ± s.e.” value is 145.0 mg, the “Treated Ear Wt mg ± s.e.” value worked out at 184.8 mg, the “Treated Ear % Inhibition” value is recorded as -34% and the “Untreated Ear % Inhibition” value worked out at 2%. Moreover, the “Mean weight of Treated Ear” value in test [1] (setting [4]) is on record as 139.5 ± 3.0 m.g. In addition, in test [1] (setting [5]), the “Mean weight of Untreated Ear” value is listed as 162.2 ± 4.9 m.g. In addition, in test [1] (setting [6]), the “Treated Ear, % in parentheses (reduction of ear weight increase vs +ve control)” value is given as 68% and the “Untreated Ear, % in parentheses (reduction of ear weight increase vs +ve control)” value is given as -35%. The “Mean weight of Treated Ear” value in test [1] (2 mg/rat, second experiment (with compound 12), -ve control 127.0, +ve control 152.2) was found to be 141.2 ± 3.7 m.g. Further, the “Mean weight of Untreated Ear” value in test [1] (2 mg/rat, second experiment, -ve control 130.1, +ve control 159.4) was found to be 155.9 ± 4.1 m.g. For the same compound, in test [1] (2 mg/rat, second experiment), the “Treated Ear, % in parentheses (reduction of ear weight increase vs +ve control)” value was 44% and the “Untreated Ear, % in parentheses (reduction of ear weight increase vs +ve control)” value was 12%.

Turning to `CC(=O)CCC1CCC2=CC(=O)CCC2C1` (stereo not shown) [Compound (12), 6-(3'-Oxobutyl)-2,3,4,4a,5,6,7,8-octahydronaphthalene-2-one], in test [2] (1 mg/ear), the “Treated Ear Wt mg ± s.e.” value was 116.1 ± 4.6 mg, the “Untreated Ear Wt mg ± s.e.” value was 112.6 ± 5.5 mg, the “Treated Ear % Inhibition” value worked out at 36% and the “Untreated Ear % Inhibition” value stood at 31%. Further, in test [2] (2 mg/ear), the “Treated Ear Wt mg ± s.e.” value was determined as 109.8 ± 3.2 mg, the “Untreated Ear Wt mg ± s.e.” value is 117.0 ± 2.8 mg, the “Treated Ear % Inhibition” value was 59% and the “Untreated Ear % Inhibition” value is listed as 9%. In test [2] (4 mg/ear), the “Treated Ear Wt mg ± s.e.” value is reported as 106.3 ± 3.4 mg, the “Untreated Ear Wt mg ± s.e.” value is 120.6 ± 4.5 mg, the “Treated Ear % Inhibition” value turned out to be 72% and the “Untreated Ear % Inhibition” value is -10%. Also, the ED50 in test [2] came to 1.6 mg/ear. In addition, in test [2] (dose response against 1% croton oil in tetrahydrofuran), the “potency relative to Compound (5)” value is on record as “of the order of two fold more potent than Compound (5)”. Besides, the “Mean weight of Treated Ear” value in test [1] (4 mg/rat, second experiment (compound 12), -ve control 127.0, +ve control 152.2) is 136.9 ± 2.9 m.g. The “Mean weight of Untreated Ear” value in test [1] (4 mg/rat, second experiment, -ve control 130.1, +ve control 159.4) came to 148.0 ± 3.9 m.g. Moreover, in test [1] (4 mg/rat, second experiment), the “Treated Ear, % in parentheses (reduction of ear weight increase vs +ve control)” value is 61% and the “Untreated Ear, % in parentheses (reduction of ear weight increase vs +ve control)” value came out at 51%.
